# Data reported in patent US8987258B2 (priority 2008, dated 2015).
# Biological target: T1, SIRT1 (Homo sapiens, UniProt Q96EB6)
# T1 sequence (Q96EB6 1-747): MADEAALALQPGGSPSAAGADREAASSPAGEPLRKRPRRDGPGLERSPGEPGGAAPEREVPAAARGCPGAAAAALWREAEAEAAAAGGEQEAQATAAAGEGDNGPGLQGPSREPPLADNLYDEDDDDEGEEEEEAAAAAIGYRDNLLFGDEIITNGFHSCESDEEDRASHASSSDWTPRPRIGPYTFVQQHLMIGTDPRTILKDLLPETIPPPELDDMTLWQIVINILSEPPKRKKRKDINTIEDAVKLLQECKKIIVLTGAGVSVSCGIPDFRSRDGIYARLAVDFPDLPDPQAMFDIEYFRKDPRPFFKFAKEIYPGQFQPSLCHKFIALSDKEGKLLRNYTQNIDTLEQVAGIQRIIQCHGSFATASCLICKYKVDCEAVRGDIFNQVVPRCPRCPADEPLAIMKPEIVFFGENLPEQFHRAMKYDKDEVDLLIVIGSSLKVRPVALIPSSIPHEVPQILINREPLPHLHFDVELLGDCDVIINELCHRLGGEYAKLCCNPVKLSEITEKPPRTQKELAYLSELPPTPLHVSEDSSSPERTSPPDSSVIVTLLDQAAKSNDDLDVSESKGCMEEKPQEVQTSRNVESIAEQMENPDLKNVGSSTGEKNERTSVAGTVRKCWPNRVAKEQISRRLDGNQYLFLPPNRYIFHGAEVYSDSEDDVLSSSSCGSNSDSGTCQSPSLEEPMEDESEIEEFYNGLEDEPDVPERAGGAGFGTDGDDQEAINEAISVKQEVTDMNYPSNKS
# Assay: Mass spectrometry based SIRT1 deacetylase activation assay
# Assay type: biochemical
# Details: for EC1.5 μM: 0.5 μM peptide substrate, 120 μM βNAD+, 10 nM SIRT1, 25 min, 25° C.; for Emax: 25 min, mass spectrometry assay, read-out: % Fold Act. (percent maximum fold activation)
# Source text: A mass spectrometry based assay was used to identify modulators of SIRT1 activity. The mass spectrometry based assay utilizes a peptide having 20 amino acid residues as follows: Ac-EE-K(biotin)-GQSTSSHSK(Ac)NleSTEG-K(5TMR)-EE-NH2 (SEQ ID NO: 1) wherein K(Ac) is an acetylated lysine residue and Nle is a norleucine. The peptide is labeled with the fluorophore 5TMR (excitation 540 nm/emission 580 nm) at the C-terminus. The sequence of the peptide substrate is based on p53 with several modifications. In addition, the methionine residue naturally present in the sequence was replaced with the norleucine because the methionine may be susceptible to oxidation during synthesis and purification.
# The mass spectrometry assay is conducted as follows: 0.5 μM peptide substrate and 120 μM βNAD^+ is incubated with 10 nM SIRT1 for 25 minutes at 25° C. in a reaction buffer (50 mM Tris-acetate pH 8, 137 mM NaCl, 2.7 mM KCl, 1 mM MgCl2, 5 mM DTT, 0.05% BSA). Test compounds may be added to the reaction as described above. […] After the 25 minute incubation with SIRT1, 10 μL of 10% formic acid is added to stop the reaction. Reactions are sealed and frozen for later mass spec analysis. Determination of the mass of the substrate peptide allows for precise determination of the degree of acetylation (i.e. starting material) as compared to deacetylated peptide (product).
# A control for inhibition of sirtuin activity is conducted by adding 1 μL of 500 mM nicotinamide as a negative control at the start of the reaction (e.g., permits determination of maximum sirtuin inhibition). A control for activation of sirtuin activity is conducted using 10 nM of sirtuin protein, with 1 μL of DMSO in place of compound, to determine the amount of deacetylation of the substrate at a given timepoint within the linear range of the assay. This timepoint is the same as that used for test compounds and, within the linear range, the endpoint represents a change in velocity.
# For the above assay, SIRT1 protein was expressed and purified as follows. […] The protein was expressed by induction with 1 mM IPTG as an N-terminal His-tag fusion protein at 18° C. overnight and harvested at 30,000×g. Cells were lysed with lysozyme in lysis buffer (50 mM Tris-HCl, 2 mM Tris[2-carboxyethyl]phosphine (TCEP), 10 μM ZnCl2, 200 mM NaCl) and further treated with sonication for 10 min for complete lysis. The protein was purified over a Ni-NTA column (Amersham) and fractions containing pure protein were pooled, concentrated and run over a sizing column (Sephadex S200 26/60 global). The peak containing soluble protein was collected and run on an Ion-exchange column (MonoQ). Gradient elution (200 mM-500 mM NaCl) yielded pure protein. This protein was concentrated and dialyzed against dialysis buffer (20 mM Tris-HCl, 2 mM TCEP) overnight. The protein was aliquoted and frozen at −80° C. until further use.
Compound,EC1.5 μM,Emax
CS(=O)(=O)c1cccc(-c2cc(=O)c3cccc(NC(=O)c4cccnc4)c3o2)c1 [Compound 242],C (EC1.5>25 μM),< 200%
"O=C(Nc1cccc(CN2CCCC2)n1)c1cccc2c(=O)cc(-c3cccc(C(F)(F)F)c3)oc12 [Compound 243, 4-oxo-N-(6-(pyrrolidin-1-ylmethyl)pyridin-2-yl)-2-(3-(trifluoromethyl)phenyl)-4H-chromene-8-carboxamide]",B (EC1.5 1-25 μM),> 200%
O=C(Nc1cccc2c(=O)cc(-c3cccc(C(F)(F)F)c3)oc12)c1cccnc1OC[C@@H](O)CO [Compound 246],B (EC1.5 1-25 μM),< 200%
O=C(Nc1cccc2c(=O)cc(-c3cccc(C(F)(F)F)c3)oc12)c1ccc(OC[C@@H](O)CO)nc1 [Compound 247],C (EC1.5>25 μM),< 200%
"Cc1cnc(NC(=O)c2cccc3c(=O)cc(-c4ccncc4)oc23)s1 [Compound 248, N-(5-methylthiazol-2-yl)-4-oxo-2-(pyridin-4-yl)-4H-chromene-8-carboxamide]",C (EC1.5>25 μM),< 200%
CS(=O)(=O)c1ccc(-c2cc(=O)c3cccc(NC(=O)c4ccccn4)c3o2)cc1 [Compound 249],C (EC1.5>25 μM),< 200%
O=C(Nc1cccc2c(=O)cc(-c3ccccc3C(F)(F)F)oc12)c1ncccn1 [Compound 252],A (EC1-5<1.0),> 200%
O=C(Nc1cccc2c(=O)cc(-c3ccccc3C(F)(F)F)oc12)c1ccncn1 [Compound 253],A (EC1-5<1.0),> 200%
COc1ccccc1-c1cc(=O)c2cccc(NC(=O)c3cnccn3)c2o1 [Compound 254],C (EC1.5>25 μM),< 200%
Cn1nccc1C(=O)Nc1cccc2c(=O)cc(-c3ccccc3C(F)(F)F)oc12 [Compound 257],A (EC1-5<1.0),> 200%
O=C(Nc1cccc2c(=O)cc(-c3ccccc3C(F)(F)F)oc12)c1ccncc1 [Compound 258],B (EC1.5 1-25 μM),> 200%
O=C(Nc1cccc2c(=O)cc(-c3ccccc3C(F)(F)F)oc12)c1cncnc1 [Compound 260],C (EC1.5>25 μM),< 200%
O=C(Nc1cccc2c(=O)cc(-c3ccccc3C(F)(F)F)oc12)c1cnccn1 [Compound 261],A (EC1-5<1.0),> 200%
O=C(Nc1cccc2c(=O)cc(-c3ccccc3OC(F)F)oc12)c1cnccn1 [Compound 263],C (EC1.5>25 μM),< 200%
CS(=O)(=O)c1ccccc1-c1cc(=O)c2cccc(NC(=O)c3cnccn3)c2o1 [Compound 265],C (EC1.5>25 μM),< 200%
O=C(Nc1cccc2c(=O)cc(-c3ccccc3C(F)(F)F)oc12)c1cncs1 [Compound 267],B (EC1.5 1-25 μM),> 200%
Cc1cnc(NC(=O)c2cccc3c(=O)cc(-c4ccccc4F)oc23)s1 [Compound 271],C (EC1.5>25 μM),< 200%
"Cc1ccccc1-c1cc(=O)c2cccc(NC(=O)c3cnccn3)c2o1 [Compound 273, N-(4-oxo-2-o-tolyl-4H-chromen-8-yl)pyrazine-2-carboxamide]",A (EC1-5<1.0),> 200%
Cc1ccccc1-c1cc(=O)c2cccc(NC(=O)c3cscn3)c2o1 [Compound 274],C (EC1.5>25 μM),< 200%
Cc1cnc(NC(=O)c2cccc3c(=O)cc(-c4ccccc4C(F)(F)F)oc23)s1 [Compound 276],C (EC1.5>25 μM),< 200%
O=C(Nc1cccc2c(=O)cc(-c3ccccc3Cl)oc12)c1cnccn1 [Compound 280],A (EC1-5<1.0),> 200%
O=C(Nc1cccc2c(=O)cc(-c3ccccc3C(F)F)oc12)c1cnccn1 [Compound 282],A (EC1-5<1.0),> 200%

# More lines, now with the values ahead:
EC1.5 μM,Emax,Compound
B (EC1.5 1-25 μM),> 200%,O=C(Nc1cccc2c(=O)cc(-c3cccc(C(F)(F)F)c3)oc12)c1cccc(OC[C@@H](O)CO)n1 [Compound 244]
C (EC1.5>25 μM),< 200%,O=C(Nc1cccc2c(=O)cc(-c3cccc(C(F)(F)F)c3)oc12)c1ccnc(OC[C@@H](O)CO)c1 [Compound 245]
A (EC1-5<1.0),> 200%,Cn1ccnc1C(=O)Nc1cccc2c(=O)cc(-c3ccccc3C(F)(F)F)oc12 [Compound 250]
A (EC1-5<1.0),> 200%,O=C(Nc1cccc2c(=O)cc(-c3ccccc3C(F)(F)F)oc12)c1ccccn1 [Compound 251]
C (EC1.5>25 μM),< 200%,COc1ccccc1-c1cc(=O)c2cccc(NC(=O)c3cscn3)c2o1 [Compound 255]
A (EC1-5<1.0),> 200%,Cn1cnc(C(=O)Nc2cccc3c(=O)cc(-c4ccccc4C(F)(F)F)oc23)c1 [Compound 256]
B (EC1.5 1-25 μM),> 200%,Cn1ccc(C(=O)Nc2cccc3c(=O)cc(-c4ccccc4C(F)(F)F)oc23)n1 [Compound 259]
B (EC1.5 1-25 μM),< 200%,O=C(Nc1cccc2c(=O)cc(-c3ccccc3C(F)(F)F)oc12)c1cccnc1 [Compound 262]
C (EC1.5>25 μM),< 200%,O=C(Nc1cccc2c(=O)cc(-c3ccccc3OC(F)F)oc12)c1cscn1 [Compound 264]
B (EC1.5 1-25 μM),< 200%,CS(=O)(=O)c1ccccc1-c1cc(=O)c2cccc(NC(=O)c3cscn3)c2o1 [Compound 266]
A (EC1-5<1.0),> 200%,Cc1ncoc1C(=O)Nc1cccc2c(=O)cc(-c3ccccc3C(F)(F)F)oc12 [Compound 268]
B (EC1.5 1-25 μM),> 200%,Cn1cc(C(=O)Nc2cccc3c(=O)cc(-c4ccccc4C(F)(F)F)oc23)cn1 [Compound 269]
C (EC1.5>25 μM),< 200%,Cc1cnc(NC(=O)c2cccc3c(=O)cc(-c4ccccc4Cl)oc23)s1 [Compound 270]
B (EC1.5 1-25 μM),> 200%,O=C(Nc1cccc2c(=O)cc(-c3ccccc3C(F)(F)F)oc12)c1cocn1 [Compound 272]
C (EC1.5>25 μM),< 200%,Cc1cnc(NC(=O)c2cccc3c(=O)cc(-c4ccccc4OC(F)(F)F)oc23)s1 [Compound 275]
B (EC1.5 1-25 μM),> 200%,Cn1cncc1C(=O)Nc1cccc2c(=O)cc(-c3ccccc3C(F)(F)F)oc12 [Compound 277]
C (EC1.5>25 μM),< 200%,O=C(Nc1cccc2c(=O)cc(-c3ccccc3F)oc12)c1cnccn1 [Compound 278]
C (EC1.5>25 μM),< 200%,O=C(Nc1cccc2c(=O)cc(-c3ccccc3F)oc12)c1cscn1 [Compound 279]
A (EC1-5<1.0),> 200%,O=C(Nc1cccc2c(=O)cc(-c3ccccc3Cl)oc12)c1cscn1 [Compound 281]
